According to PMC3266282, “Role of AMP-Activated Protein Kinase on Steroid Hormone Biosynthesis in Adrenal NCI-H295R Cells” (PLoS ONE, 2012):

Target: T1, CYP17A1 (17α-hydroxylase/17,20 lyase) (Homo sapiens, UniProt P05093)
T1 construct: human recombinant CYP17A1 co-expressed with POR in yeast microsomes; with human P450 oxidoreductase (POR)
T1 sequence (P05093 1-508): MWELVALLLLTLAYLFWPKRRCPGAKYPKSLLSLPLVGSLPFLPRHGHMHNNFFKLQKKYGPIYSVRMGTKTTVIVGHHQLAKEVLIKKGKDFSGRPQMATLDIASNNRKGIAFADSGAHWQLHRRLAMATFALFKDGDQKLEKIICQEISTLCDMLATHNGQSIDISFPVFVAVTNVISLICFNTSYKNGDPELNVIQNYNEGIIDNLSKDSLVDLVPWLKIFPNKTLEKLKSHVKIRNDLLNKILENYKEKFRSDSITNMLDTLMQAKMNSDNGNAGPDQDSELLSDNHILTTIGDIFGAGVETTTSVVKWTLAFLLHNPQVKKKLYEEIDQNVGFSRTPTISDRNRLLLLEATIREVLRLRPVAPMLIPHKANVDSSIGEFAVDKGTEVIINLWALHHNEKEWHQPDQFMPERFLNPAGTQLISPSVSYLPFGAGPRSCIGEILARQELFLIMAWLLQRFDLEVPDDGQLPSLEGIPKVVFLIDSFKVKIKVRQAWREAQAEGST
T1 sequence (P16435 2-677 partner): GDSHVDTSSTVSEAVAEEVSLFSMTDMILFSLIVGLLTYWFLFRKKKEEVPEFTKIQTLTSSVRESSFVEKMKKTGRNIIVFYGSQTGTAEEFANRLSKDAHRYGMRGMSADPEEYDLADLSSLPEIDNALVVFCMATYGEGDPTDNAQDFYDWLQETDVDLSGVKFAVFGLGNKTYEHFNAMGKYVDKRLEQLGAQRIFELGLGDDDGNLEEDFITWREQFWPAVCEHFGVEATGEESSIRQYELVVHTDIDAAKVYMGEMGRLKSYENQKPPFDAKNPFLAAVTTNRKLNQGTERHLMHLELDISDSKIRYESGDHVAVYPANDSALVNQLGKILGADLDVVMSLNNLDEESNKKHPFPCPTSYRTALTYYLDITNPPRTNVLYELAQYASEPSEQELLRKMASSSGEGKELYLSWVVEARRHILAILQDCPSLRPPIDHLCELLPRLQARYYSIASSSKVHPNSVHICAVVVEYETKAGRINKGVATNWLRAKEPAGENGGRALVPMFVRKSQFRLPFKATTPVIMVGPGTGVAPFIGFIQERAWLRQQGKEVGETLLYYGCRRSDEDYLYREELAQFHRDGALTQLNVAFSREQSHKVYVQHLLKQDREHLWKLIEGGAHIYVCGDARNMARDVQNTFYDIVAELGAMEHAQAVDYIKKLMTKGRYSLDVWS
Experiment: […]α-hydroxylase activity in yeast microsomes with radiolabelled steroid substrate, TLC readout, dose-response
Assay type: biochemical

c1cc(-c2cnn3cc(-c4ccc(OCCN5CCCCC5)cc4)cnc23)ccn1 [compound C]
IC50: 9.6 nM
